The target in one experiment is D(1A) dopamine receptor (Rattus norvegicus, UniProt P18901). Put plainly: Affinity of the Compound for Dopamine D1 receptor in rat striatal membrane was determined in vitro using Dopamine Antagonist [3H]SCH-23390 as ligand. The class given is cell membranes, Striatum.
Experiment [1] concerns the target T1, D(2) dopamine receptor (Rattus norvegicus, UniProt P61169). In words: Affinity of the Compound for Dopamine receptor D2 in rat striatal membrane was determined in vitro using Dopamine agonist [3H]N-propylnorapomorphine as ligand; Value ranges from (70-150). The class given is cell membranes, Striatum.
Experiment [2] has as its system Rattus norvegicus. Put plainly: Dose required to inhibit the synthesis of DOPA in rat brain was determined intraperitoneally. The class given is functional. Conditions: ip.
Experiment [3] addresses T1, D(2) dopamine receptor. In words: Affinity of the Compound for Dopamine receptor D2 in rat striatal membrane was determined in vitro using Dopamine Antagonist [3H]spiperone as ligand; Value ranges from (270-500). In kind it is cell membranes, Striatum.
The subject of experiment [4] is Rattus norvegicus. In words: Percent inhibition of spontaneous DA neuronal firing in the substantia nigra of anesthetized rats was determined. In kind it is functional.
Experiment [5] concerns the target T1, D(2) dopamine receptor. Put plainly: Affinity of the Compound for Dopamine receptor D2 in rat striatal membrane was determined in vitro using Dopamine Antagonist [3H]spiperone as ligand; Value ranges from (580-1050). The class given is cell membranes, Striatum.
Experiment [6] has as its target T1, D(2) dopamine receptor. Put plainly: Affinity of the Compound for Dopamine receptor D2 in rat striatal membrane was determined in vitro using Dopamine agonist [3H]N-propylnorapomorphine as ligand; Value ranges from (204-360). In kind it is cell membranes, Striatum.
The subject of experiment [7] is Rattus norvegicus. Put plainly: Percent reversal of the increase in rat striatum DOPA accumulation produced by pretreatment with GBL (750 mg/kg ip) and NSD 1015 (100 mg/kg) when 2 mg/kg was administered. The class given is functional.
The target in experiment [8] is T1, D(2) dopamine receptor. In words: Affinity of the Compound for Dopamine receptor D2 in rat striatal membrane was determined in vitro using Dopamine agonist [3H]N-propylnorapomorphine as ligand; Value ranges from (80-119). In kind it is cell membranes, Striatum.
For experiment [9], the target named is T1, D(2) dopamine receptor. Put plainly: Affinity of the Compound for Dopamine receptor D2 in rat striatal membrane was determined in vitro using Dopamine Antagonist [3H]spiperone as ligand; Value ranges from (124-550). In kind it is cell membranes, Striatum.

Each structure is given as a SMILES string. pIC50: −log10 of the molar value.

T1 sequence (P61169 whole entry): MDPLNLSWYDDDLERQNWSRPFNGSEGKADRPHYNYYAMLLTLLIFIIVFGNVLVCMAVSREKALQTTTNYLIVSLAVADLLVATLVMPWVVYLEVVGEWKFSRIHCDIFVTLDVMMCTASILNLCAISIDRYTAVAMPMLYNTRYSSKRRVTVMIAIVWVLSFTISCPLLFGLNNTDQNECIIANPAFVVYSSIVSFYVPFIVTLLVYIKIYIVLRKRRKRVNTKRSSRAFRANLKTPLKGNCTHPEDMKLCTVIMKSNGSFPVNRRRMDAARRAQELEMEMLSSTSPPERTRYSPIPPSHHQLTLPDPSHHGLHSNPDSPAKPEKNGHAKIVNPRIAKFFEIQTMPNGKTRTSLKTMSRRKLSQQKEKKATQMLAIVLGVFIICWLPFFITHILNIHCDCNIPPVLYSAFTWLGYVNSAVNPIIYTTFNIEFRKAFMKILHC
Chain of D(1A) dopamine receptor (P18901 whole entry): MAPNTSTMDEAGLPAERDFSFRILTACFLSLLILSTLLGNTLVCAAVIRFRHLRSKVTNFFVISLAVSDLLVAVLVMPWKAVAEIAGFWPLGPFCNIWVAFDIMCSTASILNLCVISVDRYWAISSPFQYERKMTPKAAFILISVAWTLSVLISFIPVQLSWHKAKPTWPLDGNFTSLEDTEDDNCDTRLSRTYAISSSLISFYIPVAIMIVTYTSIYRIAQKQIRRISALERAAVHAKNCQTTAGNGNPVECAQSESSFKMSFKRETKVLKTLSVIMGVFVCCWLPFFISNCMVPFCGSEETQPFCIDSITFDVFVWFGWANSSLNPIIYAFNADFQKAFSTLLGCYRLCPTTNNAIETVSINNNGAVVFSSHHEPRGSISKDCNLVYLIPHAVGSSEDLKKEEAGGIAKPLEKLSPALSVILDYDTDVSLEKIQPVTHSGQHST

In the case of `Nc1nc2c(s1)C[C@H](N1CCN(c3ccccn3)CC1)CC2`, the figures for the pIC50 at D(1A) dopamine receptor, on D(2) dopamine receptor [1] and at D(2) dopamine receptor [3] were under 4.82, 6.98 and 6.36, respectively. For the same compound, in the experiment with Rattus norvegicus [2], the ED50 (commonly the dose at which the effect has come halfway, by size or by number of responders) stood at 7 mg/kg. The Inhibition – broadly, how much of the control response was suppressed – in the experiment on Rattus norvegicus [4] is on record as 85%.

Regarding `Nc1nc2c(s1)C[C@@H](N1CCN(c3ccccn3)CC1)CC2`, the pIC50 – broadly, the IC50 on a negative log10 scale, so that one unit is a factor of ten – on D(1A) dopamine receptor is under 4.82; against D(2) dopamine receptor [5], 6.10; at D(2) dopamine receptor [6], 6.55. The compound also came in with a median effective dose (ED50) in the experiment with Rattus norvegicus [2] of 4.8 mg/kg. The same compound displayed an Inhibition with Rattus norvegicus [4] of 100%.

As for `CN1CCc2cccc3c2[C@H]1Cc1ccc(O)c(O)c1-3` [APOMORPHINE], the Reversal in the experiment on Rattus norvegicus [7] is 100%. The same compound displayed an Inhibition in the experiment with Rattus norvegicus [4] of 100%.

`Nc1nc2c(s1)CC(N1CCN(c3ccccn3)CC1)CC2` (racemic): the negative logarithm of the IC50 (pIC50) is under 4.82 against D(1A) dopamine receptor, 7.00 on D(2) dopamine receptor [8] and 6.49 against D(2) dopamine receptor [9]. The same compound showed an ED50 in the experiment on Rattus norvegicus [2] of 4.4 mg/kg. Further, the Inhibition in the experiment with Rattus norvegicus [4] was 97%.

For the origin of these results see ChEMBL document CHEMBL1152062, “Novel 4,5,6,7-tetrahydrobenzothiazole dopamine agonists display very low stereoselectivity in their interaction with dopamine receptors” (Bioorg Med Chem Lett, 1991).
